Like-named read-outs stand apart in the source and are kept apart here.
Columns and labels:
[1] = biological target: T1, α7GlyR L131G D219A (Homo sapiens, UniProt P36544, D219A/L131G); experiment: Agonist potency at chimeric channel (Table 9); format: cell-based
T1 construct: expressed in transfected cells

[2] = biological target: T2, α7^G175K-GlyR (Homo sapiens, UniProt P36544, G175K); experiment: Agonist potency at chimeric channel; format: cell-based
T2 construct: expressed in transfected cells

[3] = biological target: T3, α7^L131G-GlyR (Homo sapiens, UniProt P36544, L131G); experiment: Agonist potency at chimeric channel (Table 9); format: cell-based
T3 construct: expressed in transfected cells

[4] = biological target: T4, α7GlyR Q79G Y115F G175K Y210F (Homo sapiens, UniProt P36544, G175K/Q79G/Y115F/Y210F); experiment: Agonist potency at chimeric channel; format: cell-based
T4 construct: expressed in transfected cells

[5] = biological target: T5, α7^L131A-GlyR (Homo sapiens, UniProt P36544, L131A); experiment: Agonist potency at chimeric channel (Table 9); format: cell-based
T5 construct: expressed in transfected cells

[6] = biological target: T6, α7^W77F,G175K,Y210F-GlyR (Homo sapiens, UniProt P36544, G175K/W77F/Y210F); experiment: Agonist potency at chimeric channel; format: cell-based
T6 construct: expressed in transfected cells

[7] = biological target: T7, α7^L131G,Y217F-GlyR (Homo sapiens, UniProt P36544, L131G/Y217F); experiment: Agonist potency at chimeric channel (Table 9); format: cell-based
T7 construct: expressed in transfected cells

[8] = biological target: T8, α7^L131Q-GlyR (Homo sapiens, UniProt P36544, L131Q); experiment: Agonist potency at chimeric channel (Table 9); format: cell-based
T8 construct: expressed in transfected cells

[9] = biological target: T9, α7^Q79G,G175K-GlyR (Homo sapiens, UniProt P36544, G175K/Q79G); experiment: Agonist potency at chimeric channel; format: cell-based
T9 construct: expressed in transfected cells

[10] = system: α7GlyR chimeric channels with G175K and A298G mutations; format: cell-based, human
[11] = biological target: T10, α7^Q79G,Q139L,G175K-GlyR (Homo sapiens, UniProt P36544, G175K/Q139L/Q79G); experiment: Agonist potency at chimeric channel; format: cell-based
T10 construct: expressed in transfected cells

[12] = biological target: T11, α7^Q79A-5HT3 (Homo sapiens, UniProt P36544, M226I/Q79A/T225I); experiment: Agonist potency (EC50), HEK cells expressing chimeric channel; format: cell-based, human α7 nAChR LBD, murine 5HT3 IPD; settings: read-out: Mean EC50, α7^Q79A-5HT3
T11 construct: expressed in transfected cells; host or cells: HEK cells

[13] = biological target: T12, α7^W77F,Q79G,G175K-GlyR (Homo sapiens, UniProt P36544, G175K/Q79G/W77F); experiment: Agonist potency at chimeric channel; format: cell-based
T12 construct: expressed in transfected cells

[14] = biological target: T13, α7^Q79S-5HT3 (Homo sapiens, UniProt P36544, M226I/Q79S/T225I); experiment: Agonist potency (EC50), HEK cells expressing chimeric channel; format: cell-based, human α7 nAChR LBD, murine 5HT3 IPD; settings: read-out: Mean EC50, α7^Q79S-5HT3
T13 construct: expressed in transfected cells; host or cells: HEK cells

[15] = biological target: T14, α7^L131F-GlyR (Homo sapiens, UniProt P36544, L131F); experiment: Agonist potency at chimeric channel (Table 9); format: cell-based
T14 construct: expressed in transfected cells

[16] = biological target: T15, α7^Q79G,Y115F,G175K-GlyR (Homo sapiens, UniProt P36544, G175K/Q79G/Y115F); experiment: Agonist potency at chimeric channel; format: cell-based
T15 construct: expressed in transfected cells

[17] = biological target: T16, α7^L131M-GlyR (Homo sapiens, UniProt P36544, L131M); experiment: Agonist potency at chimeric channel (Table 9); format: cell-based
T16 construct: expressed in transfected cells

[18] = biological target: T17, α7GlyR R27D E41R Q79G Y115F (Homo sapiens, UniProt P36544, E41R/Q79G/R27D/Y115F); experiment: Agonist potency at chimeric channel (Table 7); format: cell-based
T17 construct: expressed in transfected cells

[19] = biological target: T18, α7^L141F,Y115F,G175K-GlyR (Homo sapiens, UniProt P36544, G175K/L141F/Y115F); experiment: Agonist potency at chimeric channel; format: cell-based
T18 construct: expressed in transfected cells

[20] = biological target: T19, α7GlyR Q79G L131G (Homo sapiens, UniProt P36544, L131G/Q79G); experiment: Agonist potency at chimeric channel (Table 9); format: cell-based
T19 construct: expressed in transfected cells

[21] = biological target: T20, α7^G175K,Y210F-GlyR (Homo sapiens, UniProt P36544, G175K/Y210F); experiment: Agonist potency at chimeric channel; format: cell-based
T20 construct: expressed in transfected cells

[22] = biological target: T21, α7-5HT3 (Homo sapiens, UniProt P36544, M226I/T225I); experiment: Agonist potency (EC50), HEK cells expressing chimeric channel; format: cell-based, human α7 nAChR LBD, murine 5HT3 IPD
T21 construct: expressed in transfected cells; host or cells: HEK cells

[23] = biological target: T22, α7^L131V-GlyR (Homo sapiens, UniProt P36544, L131V); experiment: Agonist potency at chimeric channel (Table 9); format: cell-based
T22 construct: expressed in transfected cells

[24] = biological target: T23, α7^Q79S-GlyR (Homo sapiens, UniProt P36544, Q79S); experiment: Agonist potency (EC50), HEK cells expressing chimeric channel; format: cell-based
T23 construct: expressed in transfected cells; host or cells: HEK cells

[25] = biological target: T24, α7^Q79G-GlyR (Homo sapiens, UniProt P36544, Q79G); experiment: as above; format: cell-based
T24 construct: expressed in transfected cells; host or cells: HEK cells

[26] = biological target: T25, α7^Y115F,G175K-GlyR (Homo sapiens, UniProt P36544, G175K/Y115F); experiment: Agonist potency at chimeric channel; format: cell-based
T25 construct: expressed in transfected cells

[27] = biological target: T26, α7^L131G,Q139L-GlyR (Homo sapiens, UniProt P36544, L131G/Q139L); experiment: Agonist potency at chimeric channel (Table 9); format: cell-based
T26 construct: expressed in transfected cells

[28] = biological target: T27, α7^L131G-5HT3 HC (Homo sapiens, UniProt P36544, L131G, form not given); experiment: Agonist potency at chimeric channel (Table 9); format: cell-based; settings: read-out: Agonist potency
T27 construct: rows headed: Agonist potency; other: α75HT3 L131G HC; α75HT3 L131G HC; fused on or other part: 5-HT3A receptor ion pore domain at the C-terminus

[29] = biological target: T28, α7^Q79S,L131G-GlyR (Homo sapiens, UniProt P36544, L131G/Q79S); experiment: Agonist potency at chimeric channel (Table 9); format: cell-based
T28 construct: expressed in transfected cells

[30] = read-out: Agonist potency; α7GlyR Q79G A298G G175K Y115F
[31] = read-out: Agonist potency; α7GlyR Q79G A298G P2161
[32] = read-out: Agonist potency; α7GlyR Q79G A298G Y115F K395 K396A
[33] = read-out: Agonist potency; α7GlyR Q79G G175K A298G
[34] = read-out: Agonist potency; α7GlyR Q79G W77F A298G

T18 sequence (P36544 with tags, fused parts or gaps Y115F/L141F/G175K): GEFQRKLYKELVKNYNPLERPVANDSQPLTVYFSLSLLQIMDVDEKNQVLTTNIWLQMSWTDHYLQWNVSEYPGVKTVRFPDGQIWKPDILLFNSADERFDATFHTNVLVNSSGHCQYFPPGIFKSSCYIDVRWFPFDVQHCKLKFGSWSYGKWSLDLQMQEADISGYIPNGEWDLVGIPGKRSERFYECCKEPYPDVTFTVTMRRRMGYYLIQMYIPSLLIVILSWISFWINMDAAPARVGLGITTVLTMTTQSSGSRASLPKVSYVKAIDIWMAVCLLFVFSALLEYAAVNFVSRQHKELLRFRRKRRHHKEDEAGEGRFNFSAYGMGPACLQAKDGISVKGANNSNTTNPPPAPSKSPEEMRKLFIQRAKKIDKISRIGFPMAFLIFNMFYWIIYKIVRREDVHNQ
T4 sequence (P36544 with tags, fused parts or gaps Q79G/Y115F/G175K/Y210F): as the sequence (P36544 with tags, fused parts or gaps Y115F/L141F/G175K) above, with Q57G, F119L, Y188F counted along it
T9 sequence (P36544 with tags, fused parts or gaps Q79G/G175K): as the sequence (P36544 with tags, fused parts or gaps Y115F/L141F/G175K) above, with Q57G, F93Y, F119L counted along it
T12 sequence (P36544 with tags, fused parts or gaps W77F/Q79G/G175K): as the sequence (P36544 with tags, fused parts or gaps Y115F/L141F/G175K) above, with W55F, Q57G, F93Y, F119L counted along it
T16 sequence (P36544 with tags, fused parts or gaps L131M): as the sequence (P36544 with tags, fused parts or gaps Y115F/L141F/G175K) above, with F93Y, L109M, F119L, K153G counted along it
T6 sequence (P36544 with tags, fused parts or gaps W77F/G175K/Y210F): as the sequence (P36544 with tags, fused parts or gaps Y115F/L141F/G175K) above, with W55F, F93Y, F119L, Y188F counted along it
T2 sequence (P36544 with tags, fused parts or gaps G175K): as the sequence (P36544 with tags, fused parts or gaps Y115F/L141F/G175K) above, with F93Y, F119L counted along it
T1 sequence (P36544 with tags, fused parts or gaps L131G/D219A): as the sequence (P36544 with tags, fused parts or gaps Y115F/L141F/G175K) above, with F93Y, L109G, F119L, K153G, D197A counted along it
T15 sequence (P36544 with tags, fused parts or gaps Q79G/Y115F/G175K): as the sequence (P36544 with tags, fused parts or gaps Y115F/L141F/G175K) above, with Q57G, F119L counted along it
T5 sequence (P36544 with tags, fused parts or gaps L131A): as the sequence (P36544 with tags, fused parts or gaps Y115F/L141F/G175K) above, with F93Y, L109A, F119L, K153G counted along it
T22 sequence (P36544 with tags, fused parts or gaps L131V): as the sequence (P36544 with tags, fused parts or gaps Y115F/L141F/G175K) above, with F93Y, L109V, F119L, K153G counted along it
T24 sequence (P36544 with tags, fused parts or gaps Q79G): as the sequence (P36544 with tags, fused parts or gaps Y115F/L141F/G175K) above, with Q57G, F93Y, F119L, K153G counted along it

Structure (SMILES) | EC50 [1] [nM] | EC50 [2] [nM] | EC50 [3] [nM] | EC50 [4] [nM] | EC50 [5] [nM] | EC50 [6] [nM] | EC50 [7] [nM] | EC50 [8] [nM] | EC50 [9] [nM] | EC50 [11] [nM] | EC50 [13] [nM] | EC50 [16] [nM] | EC50 [17] [nM] | EC50 [18] [nM] | EC50 [19] [nM] | EC50 [21] [nM] | EC50 [23] [nM] | EC50 [24] [nM] | EC50 [25] [nM] | EC50 [26] [nM] | further results
O=C(NC1CN2CCC1CC2)c1ccc(Cl)cc1 (centres unmarked) [PNU-282987] | 410 | 5 | 34 | > 1000 | 55 | > 40000 | 54 | 48 | 60 | 50 | 500 | 80 | 21 | 340 | 510 | 700 | 64 | 14 | 26 | 100 | EC50 [10, 30]: 9 nM; EC50 [10, 31]: 250 nM; EC50 [10, 32]: 110 nM; EC50 [10, 33]: 0.36 nM; EC50 [10, 34]: 1630 nM; EC50 [12]: 37 nM; EC50 [14]: 23 nM; EC50 [15]: 200 nM; EC50 [20]: 96 nM; EC50 ([22]; read-out: Mean EC50, α7-5HT3): 220 nM; EC50 ([22]; read-out: α7-5HT3 EC50): 220 nM; EC50 [27]: 63 nM; EC50 [28]: 33 nM; EC50 [29]: 6 nM
Clc1ccc(C2CC3CCC2N3)cn1 (centres unmarked) [Epibatidine] | 160 | 5 | 9 | > 10000 | 27 | 380 | 15 | 27 | 37 | 144 | 2600 | 220 | 42 | 267 | 144 | 650 | 210 | 24 | 69 | 36 | EC50 ([10]; α7GlyR Q79G A298G G175K Y115F; read-out: Agonist potency): 11 nM; EC50 ([10]; α7GlyR Q79G A298G P2161; read-out: Agonist potency): 50 nM; EC50 ([10]; α7GlyR Q79G A298G Y115F K395 K396A; read-out: Agonist potency): 150 nM; EC50 ([10]; α7GlyR Q79G G175K A298G; read-out: Agonist potency): 2.3 nM; EC50 ([10]; α7GlyR Q79G W77F A298G; read-out: Agonist potency): 370 nM; EC50 ([12]; HEK cells, Table 1): 67 nM; EC50 ([14]; HEK cells, Table 1): 44 nM; EC50 ([22]; read-out: Mean EC50, α7-5HT3, HEK cells, Table 1): 53 nM; EC50 [27]: 12 nM; EC50 ([28]; α75HT3 L131G HC): 9 nM; EC50 [29]: 7 nM
O=c1cccc2n1C[C@@H]1CNC[C@H]2C1 [Cytisine] | > 30000 | 400 | 13100 | > 30000 | 20600 | 5100 | 30000 | > 30000 | 2500 | 3240 | 6900 | > 10000 | 7000 | > 30000 | 4740 | > 10000 | 4300 | 2500 | 5600 | 7100 | EC50 [10, 30]: 4600 nM; EC50 [10, 31]: 5500 nM; EC50 [10, 32]: > 30000 nM; EC50 [10, 33]: 134 nM; EC50 [10, 34]: 14100 nM; EC50 [12]: 4000 nM; EC50 [14]: 4400 nM; EC50 [15]: 10500 nM; EC50 [20]: > 30000 nM; EC50 ([22]; read-out: Mean EC50, α7-5HT3): 8200 nM; EC50 [27]: 12000 nM; EC50 [28]: 11000 nM; EC50 [29]: 8100 nM

Reference: patent publication US11124554B2, “Modified ligand-gated ion channels and methods of use” (Howard Hughes Medical Institute, priority 2016, dated 2021)
